Calls of active or inactive are those of the source. The rule behind the calls is not given here.
Assays:
[1] = molecular target: T1, 5-hydroxytryptamine receptor 2A (Homo sapiens, UniProt P28223); test: Inhibition of [125I](+/-)DOI binding to 5-HT2AR (unknown origin ) expressed in HEK293 cells at 10 uM by scintillation counter analysis; format: cell-based
[2] = molecular target: T1, 5-hydroxytryptamine receptor 2A; test: Inhibition of 5-HT2AR (unknown origin ) assessed as inhibition constant
[3] = molecular target: T1, 5-hydroxytryptamine receptor 2A; test: Inhibition of [125I](+/-)DOI binding to 5-HT2AR (unknown origin ) expressed in HEK293 cells assessed as inhibition constant by scintillation counter analysis; format: cell-based
[4] = molecular target: 5-hydroxytryptamine receptor 2B (Homo sapiens, UniProt P41595); test: Inhibition of [125I](+/-)DOI binding to 5-HT2BR (unknown origin ) expressed in CHO cells assessed as inhibition constant by scintillation counter analysis; format: cell-based
Chain of 5-hydroxytryptamine receptor 2B (P41595 whole entry): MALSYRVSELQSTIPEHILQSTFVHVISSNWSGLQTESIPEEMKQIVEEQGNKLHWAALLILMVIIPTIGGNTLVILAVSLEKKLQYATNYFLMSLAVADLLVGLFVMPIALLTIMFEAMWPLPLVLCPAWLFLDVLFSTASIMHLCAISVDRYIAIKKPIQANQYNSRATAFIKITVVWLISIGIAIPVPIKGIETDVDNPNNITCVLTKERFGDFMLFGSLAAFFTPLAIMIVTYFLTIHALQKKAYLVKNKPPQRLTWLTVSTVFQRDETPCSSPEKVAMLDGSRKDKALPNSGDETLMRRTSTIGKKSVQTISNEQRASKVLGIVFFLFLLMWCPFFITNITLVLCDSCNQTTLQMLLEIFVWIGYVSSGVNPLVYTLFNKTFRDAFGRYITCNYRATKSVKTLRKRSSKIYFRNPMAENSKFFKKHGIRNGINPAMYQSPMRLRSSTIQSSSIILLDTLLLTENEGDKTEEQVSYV

T1 sequence (P28223 whole entry): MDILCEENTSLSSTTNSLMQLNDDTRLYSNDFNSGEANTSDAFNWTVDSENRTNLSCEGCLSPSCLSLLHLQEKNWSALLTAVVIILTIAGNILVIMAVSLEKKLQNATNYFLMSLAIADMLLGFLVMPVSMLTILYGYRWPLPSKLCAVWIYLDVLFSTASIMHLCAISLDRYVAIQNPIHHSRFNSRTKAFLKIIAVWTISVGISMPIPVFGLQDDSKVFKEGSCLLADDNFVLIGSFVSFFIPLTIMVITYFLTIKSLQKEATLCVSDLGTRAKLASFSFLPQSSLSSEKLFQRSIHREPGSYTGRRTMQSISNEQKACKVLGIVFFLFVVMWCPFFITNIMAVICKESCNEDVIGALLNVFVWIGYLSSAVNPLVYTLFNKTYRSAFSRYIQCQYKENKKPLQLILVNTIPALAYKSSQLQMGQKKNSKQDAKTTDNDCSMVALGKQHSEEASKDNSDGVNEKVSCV

Compound	inhibition [1]	Ki [2] [nM]	Ki [3] [nM]	Ki [4] [nM]
CCOP(=O)(OCC)c1cccc2[nH]cc(CCN(C)C)c12	Active	–	–	–
CN(C)CCc1c[nH]c2cccc(OP(=O)(O)O)c12 [PSILOCYBIN]	–	> 10000	–	–
CCOP(=O)(OCC)c1ccc2[nH]cc(CCN(C)C)c2c1	Active	–	620	140

— ChEMBL document CHEMBL5344480 (RSC Med Chem, 2024)
